Target: T1, T. gondii CDPK1 (tgCDPK1) (Toxoplasma gondii, UniProt Q9BJF5)
T1 sequence (Q9BJF5 1-507): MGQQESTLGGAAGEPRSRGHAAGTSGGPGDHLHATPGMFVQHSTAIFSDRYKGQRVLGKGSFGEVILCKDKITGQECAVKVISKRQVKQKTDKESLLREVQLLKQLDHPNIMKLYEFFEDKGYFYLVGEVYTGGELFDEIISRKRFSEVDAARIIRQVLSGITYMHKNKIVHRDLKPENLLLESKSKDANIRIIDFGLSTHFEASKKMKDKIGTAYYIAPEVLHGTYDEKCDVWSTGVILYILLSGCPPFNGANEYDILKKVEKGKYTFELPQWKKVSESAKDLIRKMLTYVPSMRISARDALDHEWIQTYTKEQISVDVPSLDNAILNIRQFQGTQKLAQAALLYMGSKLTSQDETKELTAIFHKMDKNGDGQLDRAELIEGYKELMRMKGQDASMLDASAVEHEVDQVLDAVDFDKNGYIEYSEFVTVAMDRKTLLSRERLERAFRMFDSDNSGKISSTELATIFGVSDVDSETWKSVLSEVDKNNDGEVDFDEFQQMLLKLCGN
Assay: Inhibition of T. gondii CDPK1 (tgCDPK1), IC50 determination
Format: biochemical
Conditions: at least three independent replicates per compound
Procedure: Certain of the compounds prepared as described above were assayed to determine their IC50 for inhibition of T. gondii CDPK1 (tgCDPK1). At least three independent replicates of the assay were conducted for each compound tested.

Nc1ncnc2c1c(Cc1cccc(Cl)c1)nn2C1CCC1 [Compound 6, 3-(3-chlorobenzyl)-1-cyclobutyl-1H-pyrazolo[3,4-d]pyrimidin-4-amine]
IC50: 8.7 nM

Nc1ncnc2c1c(Cc1cccc(-c3ccncc3)c1)nn2C1CC1 [Compound 11, 1-cyclopropyl-3-(3-(pyridin-4-yl)benzyl)-1H-pyrazolo[3,4-d]pyrimidin-4-amine]
IC50: 1170 nM

Nc1ncnc2c1c(Cc1cccc(-c3cncnc3)c1)nn2C1CC1 [Compound 10, 1-cyclopropyl-3-(3-(pyrimidin-5-yl)benzyl)-1H-pyrazolo[3,4-d]pyrimidin-4-amine]
IC50: 373 nM

Nc1ncnc2c1c(C(O)c1cccnc1)nn2C1CC1 (stereo not drawn) [Compound 18, (4-amino-1-cyclopropyl-1H-pyrazolo[3,4-d]pyrimidin-3-yl)(pyridin-3-yl)methanol]
IC50: 4870 nM

Nc1ncnc2c1c(Cc1ccccc1)nn2C1CC1 [Compound 17, 3-benzyl-1-cyclopropyl-1H-pyrazolo[3,4-d]pyrimidin-4-amine]
IC50: 25.4 nM

Nc1ncnc2c1c(Cc1cccc(F)c1)nn2C1CC1 [Compound 5, 1-cyclopropyl-3-(3-fluorobenzyl)-1H-pyrazolo[3,4-d]pyrimidin-4-amine]
IC50: 25.3 nM

Nc1ncnc2c1c(Cc1cccc(-c3ccccc3)c1)nn2C1CC1 [Compound 9, 3-([1,1′-biphenyl]-3-ylmethyl)-1-cyclopropyl-1H-pyrazolo[3,4-d]pyrimidin-4-amine]
IC50: 26.3 nM

Nc1ncnc2c1c(C(O)c1ccccc1)nn2C1CC1 (stereo not drawn) [Compound 16, (4-amino-1-cyclopropyl-1H-pyrazolo[3,4-d]pyrimidin-3-yl)(phenyl)methanol]
IC50: 1750 nM

Nc1ncnc2c1c(Cc1cc(F)cc(Cl)c1)nn2C1CC1 [Compound 4, 3-(3-chloro-5-fluorobenzyl)-1-cyclopropyl-1H-pyrazolo[3,4-d]pyrimidin-4-amine]
IC50: 91.7 nM

From US20210115047A1, “CDPK1 INHIBITORS, COMPOSITIONS AND METHODS RELATED THERETO” (Vyera Pharmaceutical, LLC, priority 2017, published 2021)
